Test results reported in paper PMC8728441, “Biosynthesis of the redox cofactor mycofactocin is controlled by the transcriptional regulator MftR and induced by long-chain acyl-CoA species” (The Journal of Biological Chemistry, 2021).

Tests used:
MftR H68A–Omft complex = experiment: Competitive EMSA with H68A mutant and oleoyl-CoA; assay type: binding, Mycobacterium smegmatis mc^2155; details: up to 100 μM oleoyl-CoA
From the text: Next, we examined which amino acid residues contribute to the interaction between MftR and oleoyl-CoA. The crystal structure of Msmeg MftR is currently unavailable; however, an unpublished structure of Rhodococcus jostii RHA1 MftR has been deposited in the Protein Data Bank (PDB) (PDB ID: 2RAE, 54% identical, Fig. S3). Using this structure, we employed SwissDock to model oleoyl-CoA bound to MftR (Fig. 5) ([41], [42]). From the docked structure, we identified eight conserved residues on MftR that were expected to create the acyl-binding pocket or bind CoA through electrostatic interactions. Following single amino acid replacements of the residues, we measured the Kd values of the mutant proteins to oleoyl-CoA using ITC. For the putative acyl-binding pocket residues Phe65, Phe96, and Ile114, mutations to alanine led to no or modest change to the Kd for oleoyl-CoA (Table 1). […] Conversely, when His68 was mutated to alanine, binding of oleoyl-CoA by the protein was undetectable. To validate this observation, competitive EMSAs were carried out using the H68A mutant. […] Thus, it is highly likely that His68 is an important residue for oleoyl-CoA binding. To evaluate residues that were expected to interact with CoA, Gln15, Asp16, Ser67, and Asp66 were targeted. Of these, mutants of Asp16 and Ser67 had the greatest effect (Table 1). […]

MftR F96A = target: T1, MftR F96A (Mycolicibacterium smegmatis, UniProt A0QSB5, F96A); experiment: ITC binding of oleoyl-CoA to MftR variant; design: species or system Mycobacterium smegmatis mc^2155
T1 sequence (A0QSB5 1-200 F96A): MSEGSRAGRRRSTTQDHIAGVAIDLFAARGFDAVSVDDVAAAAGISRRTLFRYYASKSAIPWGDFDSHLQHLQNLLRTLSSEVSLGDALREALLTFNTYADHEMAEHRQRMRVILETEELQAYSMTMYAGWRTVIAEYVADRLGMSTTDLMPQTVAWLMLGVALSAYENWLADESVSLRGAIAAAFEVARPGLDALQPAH
From the text: (§1) Next, we examined which amino acid residues contribute to the interaction between MftR and oleoyl-CoA. The crystal structure of Msmeg MftR is currently unavailable; however, an unpublished structure of Rhodococcus jostii RHA1 MftR has been deposited in the Protein Data Bank (PDB) (PDB ID: 2RAE, 54% identical, Fig. S3). Using this structure, we employed SwissDock to model oleoyl-CoA bound to MftR (Fig. 5) ([41], [42]). From the docked structure, we identified eight conserved residues on MftR that were expected to create the acyl-binding pocket or bind CoA through electrostatic interactions. Following single amino acid replacements of the residues, we measured the Kd values of the mutant proteins to oleoyl-CoA using ITC. For the putative acyl-binding pocket residues Phe65, Phe96, and Ile114, mutations to alanine led to no or modest change to the Kd for oleoyl-CoA (Table 1). […] Conversely, when His68 was mutated to alanine, binding of oleoyl-CoA by the protein was undetectable. To validate this observation, competitive EMSAs were carried out using the H68A mutant. […] Thus, it is highly likely that His68 is an important residue for oleoyl-CoA binding. To evaluate residues that were expected to interact with CoA, Gln15, Asp16, Ser67, and Asp66 were targeted. Of these, mutants of Asp16 and Ser67 had the greatest effect (Table 1). […] This latter observation was validated using competitive EMSAs (Fig. S4B). […] Taken together, it is likely that Ser67 and Asp16 participate in oleoyl-CoA binding, likely through electrostatic interactions.
(§2) Mutant strand synthesis reactions were performed according to the Agilent QuikChange site-directed mutagenesis protocol. The mftR_pET28a plasmid was used as a template for site-directed mutagenesis studies. Sequence-verified plasmids were transformed into E. coli BL21(DE3) pLysS cells for protein production and purified using the same protocol as wildtype MftR.
(§3) ITC was performed using TA Nano ITC. MftR was loaded in the sample cell at the concentration of 16 and 250 μM acyl-CoAs (C12–C18) loaded in the syringe. To minimize the effect of buffer mismatch, the stock concentration of acyl-CoAs was prepared using ITC buffer (50 mM Hepes, 50 mM NaCl, and pH 7.5), and the pH was adjusted to within 0.05 units. In addition, MftR was buffer exchanged into ITC buffer using a PD-10 column (GE Life Sciences). The volume of the titrant added at each injection into the sample cell was 2.22 μl. The time interval between the successive injections was 180 s. The temperature of the cell was kept at 25 °C. The data obtained were fit by independent one-site model using NanoAnalyze Data Analysis, version 3.8.0, that was provided with the instrument.

MftR F65A = target: T2, MftR F65A (Mycolicibacterium smegmatis, UniProt A0QSB5, F65A); experiment: ITC binding of oleoyl-CoA to MftR variant; design: species or system Mycobacterium smegmatis mc^2155
T2 sequence (A0QSB5 1-200 F65A): T1 sequence (A0QSB5 1-200 F96A)
From the text: as §1, §2, §3

MftR (WT) = MftR (WT) (Mycolicibacterium smegmatis, UniProt A0QSB5); experiment: ITC binding of acyl-CoAs to MftR; design: species or system Mycobacterium smegmatis mc^2155
Description: as §3

Q: With `CCCCCCCC/C=C\CCCCCCCC(=O)SCCNC(=O)CCNC(=O)[C@H](O)C(C)(C)COP(=O)(O)OP(=O)(O)OC[C@H]1O[C@@H](n2cnc3c(N)ncnc32)[C@H](O)[C@@H]1OP(=O)(O)O` [oleoyl-CoA] as the molecule, how does the “release of Omft from H68A mutant” value (MftR H68A–Omft complex) read?
A: remained bound to Omft

Q: And the Kd (MftR F96A)?
A: 1400 ± 100 nM

Q: And the Kd (MftR F65A)?
A: 1900 ± 100 nM

Q: And the Kd (MftR (WT))?
A: 1400 ± 100 nM

Q: And the “number of binding sites” value (MftR (WT); ITC, WT MftR, one-site model)?
A: ~0.6 sites per monomer MftR
